Experiments:
[1] = EPR competition with BMPO, superoxide anion from xanthine/xanthine oxidase (aqueous phase); assay type: biochemical; settings: xanthine oxidase 53 mU/mL + xanthine 250 μM in PBS pH 7.4, BMPO 50 mM, 10 minutes of incubation; read-out: IC50, inhibition of the formation of the BMPO superoxide adduct
Method: The reactivity of compound (1) with superoxide anion in the aqueous phase was also studied by EPR at room temperature using the same competition method with the trapping reagent BMPO at 50 mM (FIG. 1B). In this case, superoxide anion is produced by enzymatic reaction of xanthine oxidase (XO, 53 mU/mL) with xanthine (X, 250 μM) in PBS (pH 7.4) containing 0.1 mM ethylenediaminetetraacetic acid (EDTA). The concentrations used for compound (1) are between 0.34 μM and 43.1 μM. These experiments were carried out with an ELEXSYS E500 EPR spectrometer (Bruker, Wissembourg, France), operating at a frequency of 9.82 GHz (X-band) with the following parameters: magnetic field: 349.0 ±6.6 mT; sweep time: 41.94 s; sampling: 1024 points; time constant: 40.96 ms; conversion time: 40.96 ms; modulation amplitude: 0.10 mT; modulation frequency: 100 kHz; gain: 60 dB; microwave power: 10 mW.

[2] = system: chick embryo chorioallantoic membrane; test: In ovo physiological angiogenesis on chick embryo chorioallantoic membrane; assay type: in vivo; settings: 20 μL of 50 μM solution on CAM, seventh day of embryonic development
Method: The effect of compound (1) on physiological angiogenesis was evaluated using the chick embryo chorioallantoic membrane (CAM) model which constitutes a richly vascularized tissue.
At the seventh day of embryonic development, 20 μL of the 50 μM solution of compound (1) was deposited on the chorioallantoic membrane whereas the control membranes were treated with solvent.

[3] = system: U87 cells; test: VEGF secretion by ELISA, U87 culture supernatant; assay type: cell-based, human; settings: U87, normoxic and hypoxic (2% O2) conditions, concentrations of 5 to 50, 24 hours
Method: (§1) At the tenth day of embryonic development, glioblastoma cells (U87, 5×10^6 in 20 μL) were deposited on the chorioallantoic membrane. Two days after the graft, compound (1) at a concentration of 50 μM in a volume of 20 μL was deposited on the surface of the tumor formed. This treatment was repeated every 24 hours for 5 days. The control group was treated with solvent. The test was carried out on 20 eggs bearing glioblastoma tumors for each group. Images of the tumors were taken at day 3 (24 hours after treatment), at day 5 (3 days after treatment) and at day 7 (5 days after treatment) of tumor development. […] In order to determine the antiangiogenic mechanism of compound (1), VEGF was assayed by the ELISA method (Invitrogen, Novex technology), from the culture supernatant of U87 and HCT-116 cells, under normoxic and hypoxic conditions.

[4] = system: HCT-116 cells; test: VEGF secretion by ELISA, HCT-116 culture supernatant; assay type: cell-based; settings: HCT-116, normoxic and hypoxic (2% O2) conditions, concentrations of 5 to 50, 24 hours
Method: as §1

[5] = system: K562R cells; test: Cell growth test (CellTiter-Blue), K562R; assay type: cell-based; settings: Homo sapiens, K-562R, normoxia, 72 hours, read-out: IC50 (50% decrease in cell growth)
Method: (§2) The biological activity of compound (1), as well as that of its structural analogues, was studied in vitro on 7 different cancer cell lines: • HCT-116 (colorectal cancer) • U87 (glioblastoma) • K562 (myeloid leukemia) and K562 R • MDA-MB 231 (mammary adenocarcinoma) • MCF-7 (mammary adenocarcinoma) • A549 (pulmonary alveolar adenocarcinoma)
(§3) The cells selected for this study were incubated at 37° C. in the presence of compound (1) added in the culture medium at various concentrations and at various times. The set of experiments carried out made it possible to determine the degree of cytotoxicity of the compound tested (IC50), its capacity to induce cell death by apoptosis, in close dependence on extracellular superoxide anion for its activation.
(§4) The effect of compound (1) on the growth of HCT-116, U87, K562, K562R, MDA-MB 231, MCF-7 and A549 cells, cultured in normoxia, was evaluated using a cell growth test (CellTiter-Blue™ Cell Viability Assay, Promega).

[6] = system: caspases 3 and 7 in HL60 cells; test: Caspase 3 and 7 activity (ApoONE test), HL60; assay type: cell-based; settings: HL60, normoxia, 24 hours, 1 μM to 50 μM
Method: (§5) In order to specify whether compound (1) leads to apoptotic cell death, the activity of caspases 3 and 7, marker enzymes of apoptosis, was measured using the ApoONE test (Promega) in HCT-116, U87 and HL60 cells treated in normoxia for 24 hours with compound (1) at concentrations varying from 1 μM to 50 μM.

[7] = system: MCF-7 cells; test: Cell growth test (CellTiter-Blue), MCF-7; assay type: cell-based; settings: Homo sapiens, MCF7; MCF-7, normoxia, 72 hours; read-out: IC50 (50% decrease in cell growth)
Method: as §2, §3, §4

[8] = system: human glioblastoma (U87) grafted onto the chick embryo chorioallantoic membrane; test: In ovo tumor angiogenesis, glioblastoma grafted onto chick embryo chorioallantoic membrane (CAM); assay type: in vivo; settings: 50 μM, 20 μL on tumor every 24 hours
Method: The effect of compound (1) on tumor angiogenesis was evaluated using the in ovo model based on human tumor grafted onto chick embryo chorioallantoic membrane (CAM).
This experimental approach makes it possible in only a few days to evaluate the tumor's progression and level of vascularization.
as §1

[9] = system: HCT-116 cells; test: Cellular superoxide anion signal, DHE probe, HPLC-fluorimetry; assay type: cell-based; settings: HCT-116, 50 μM for 3 hours, DHE 10 μM 20 minutes, normoxia
Method: The effect of compound (1) on superoxide anion was studied following the treatment of HCT-116 cells with 50 μM compound (1) for 3 hours and followed by incubation with the probe dihydroethidium (DHE) (10 μM) for 20 minutes. After removing the culture medium and washing with ice-cold DPBS, the cells were collected in 1 ml of cold DPBS. After centrifugation at 1000 g for 5 minutes, the pellet was taken up in 150 μl of PBS with Triton X100 (0.1%), shaken and centrifuged at 1000 g for 5 minutes. The supernatant was mixed with a 0.2 M solution of HClO4 in methanol, shaken and placed on ice for 2 hours. After centrifugation at 20000 g for 30 minutes, the supernatant is analyzed by HPLC coupled with fluorescence (λex=510 nm, λcm=595 nm). In the untreated cells (continuous line), the first peak at tR=5.16 minutes corresponds to the oxidized form “E+”, product of oxidation by peroxidases, and the second peak at tR =5.71 minutes to the oxidized form 2-OH E+, specific to the interaction with superoxide anion. In the treated cells, the first peak at tR=5.29 minutes corresponding to the oxidized form “E+” is increased, whereas the second peak at tR=5.71 minutes, corresponding to the oxidized form 2OH E+, specific to the interaction with superoxide anion, was suppressed. […] (FIG. 10).

[10] = system: caspases 3 and 7 in U87 cells; test: Caspase 3 and 7 activity (ApoONE test), U87; assay type: cell-based, human; settings: U87, normoxia, 24 hours, 1 μM to 50 μM
Method: as §5

Q: What does the source list for `OCCCn1cc(-c2ccccc2)c(-c2ccc(O)c(O)c2)c1` [compound (1)]?
A: IC50 [1]: 3.2 µM; effect on physiological angiogenesis [2]: absence of the effect; VEGF secretion [3]: does not modify VEGF secretion; VEGF secretion [4]: does not modify VEGF secretion; IC50 [5]: 12.5 µM; activity of caspases 3 and 7 [6]: strongest activation; IC50 [7]: 15 µM; tumor vascularization ([8]; after 3 treatments (day 5), also day 7, vs control group): inhibition of tumor vascularization; growth of the treated tumor ([8]; day 7): significant inhibition of the growth of the treated tumor; 2-OH E+ signal (DHE oxidized by superoxide anion) [9]: inhibition of the 2OH E+ signal; E+ signal (DHE oxidized by peroxidases or catalase) [9]: increase in the E+ signal; activity of caspases 3 and 7 [10]: significant activation of both caspases

From patent US10233151B2, “Use of a novel 3-aryl-4-catechol-pyrrole-N-propanol compound and the derivatives thereof to treat cancer and diseases related to excessive angiogenesis” (Centre National de la Recherche Scientifique (CNRS), priority 2014, dated 2019)
